# Experimental data taken from PubChem BioAssay (NCI).
#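 Test compounds were applied to cells in 96-well plates for 48 hours at 5 doses. The concentration for 50% growth inhibition is given as GI50. TGI is the concentration that stops growth completely.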
# Columns and labels:
# Test in all cases: DTP human tumour cell line panel, 48 h
# DLD-1 colon = tested on: DLD-1 colon
# EKVX NSCLC = tested on: EKVX NSCLC
# IGROV1 ovarian = tested on: IGROV1 ovarian
# NCI-H226 lung = tested on: NCI-H226 lung
# OVCAR-3 ovarian = tested on: OVCAR-3 ovarian
# RPMI-8226 leukemia = tested on: RPMI-8226 leukemia
# SNB-19 CNS = tested on: SNB-19 CNS
# DMS 273 small cell lung = tested on: DMS 273 small cell lung
# MCF7 breast = tested on: MCF7 breast
# MDA-MB-231 breast = tested on: MDA-MB-231 breast
Structure (SMILES),TGI (DLD-1 colon) [µM],TGI (EKVX NSCLC) [µM],TGI (IGROV1 ovarian) [µM],TGI (NCI-H226 lung) [µM],TGI (OVCAR-3 ovarian) [µM],TGI (RPMI-8226 leukemia) [µM],TGI (SNB-19 CNS) [µM],TGI (DMS 273 small cell lung) [µM],GI50 (DLD-1 colon) [µM],GI50 (DMS 273 small cell lung) [µM],GI50 (EKVX NSCLC) [µM],GI50 (NCI-H226 lung) [µM],GI50 (OVCAR-3 ovarian) [µM],GI50 (SNB-19 CNS) [µM],GI50 (IGROV1 ovarian) [µM],GI50 (MCF7 breast) [µM],TGI (MCF7 breast) [µM],GI50 (MDA-MB-231 breast) [µM],TGI (MDA-MB-231 breast) [µM],GI50 (RPMI-8226 leukemia) [µM]
Fc1ccc(C2SCc3nc4ccccc4n32)cc1 (stereo unspecified),> 100,> 100,> 100,92.4,77.6,> 100,9.64,–,–,–,–,–,–,–,–,–,–,–,–,–
CN1CC(C(=O)C2C(=O)c3ccccc3C2=O)C(=O)C(=O)C(C(=O)C2C(=O)c3ccccc3C2=O)C1 (stereo unspecified),> 100,–,> 100,–,> 10,–,> 100,> 100,–,–,–,–,–,–,–,–,–,–,–,–
CCN(CCCl)CCCNc1c2ccccc2nc2ccc(OC)cc12,–,–,1510,–,–,–,–,–,174,177,557,580,119,205,–,–,–,–,–,–
CC(=O)CCCCO,–,> 100,> 100,–,> 100,> 100,> 100,> 100,–,–,–,–,–,–,–,–,–,–,–,–
NC(N)=NNC(=O)CCCCCCCC(=O)NN=C(N)N,> 100,> 100,> 100,–,–,–,> 100,> 100,–,–,–,–,–,–,–,–,–,–,–,–
S=C1Nc2ccc(Cl)cc2C2(c3ccccc3)N3CCN=C3NN12 (stereo unspecified),–,> 100,40.9,> 100,55.2,57.3,> 100,–,–,–,55.7,33.9,25.7,36.9,17.4,27.4,> 100,32.5,> 100,21.7
c1cn2cc(-c3ccc4cn[nH]c4c3)nc(Nc3ccc(N4CCOCC4)cc3)c2n1,–,41.8,46,24.6,40.2,86.6,30.8,–,–,–,14.8,4.82,18.4,11.2,16.5,10.6,25.1,12.6,26.7,18.5
CC(C)(C)C(=O)ON1N=NC2C3CC(OCc4ccccc4)(OCc4ccccc4)C(O3)C21 (stereo unspecified),44.6,–,> 100,40,35.9,49.4,–,51.2,–,–,–,–,–,–,–,–,–,–,–,–
CCN1c2ccccc2C(Cl)(c2ccc(N(C)C)cc2)c2ccccc21,–,> 100,7.98,34.5,8.53,4.04,19.1,–,–,–,7.98,14.6,2.93,5.44,2.61,10.3,30.5,13.1,37.5,1.07
c1ccc(-c2nc(-c3ccccc3)c(-c3ccccc3)[nH]2)cc1,–,> 100,> 100,> 100,> 100,> 72.9,> 100,–,–,–,–,–,–,–,–,–,> 100,–,> 100,–
O=C(C(=O)N1CC2C=CC1CC2)c1c[nH]c2ccccc12 (stereo unspecified),> 100,–,> 100,> 100,–,> 100,> 100,> 100,–,–,–,–,–,–,–,–,–,–,–,–
C=CC1CC12C(=O)C1OC2(C)C2C(=O)c3c(O)ccc(O)c3C(=O)C12 (stereo unspecified),–,28.2,> 100,14.2,3.83,–,14.5,–,–,–,7.46,5.8,1.13,5.35,3.26,2.2,8.38,2.33,7.38,0.423
O=C(Cc1cccc(OC(F)(F)F)c1)Nc1ccc(CCCCc2nnc(NC(=O)Cc3ccccn3)s2)nn1,–,68.7,> 100,54.1,> 100,32.3,> 100,–,–,–,13.3,15.1,17,29.4,17.3,16.5,> 100,29.8,> 100,0.452
NC(=O)C(c1ccccc1)N1CCOCC1 (stereo unspecified),> 100,–,> 100,> 100,> 100,> 100,–,> 100,–,–,–,–,–,–,–,–,–,–,–,–
Cc1ccc(SC2=CC(=O)c3nc4ccccc4c4ccnc2c34)cc1,–,> 100,> 58.5,> 100,> 54.7,> 100,> 100,–,–,–,35,> 61.9,23.2,> 71.2,> 37.9,26.8,> 68.6,23.4,60,30.1
COc1ccc(-n2c3c(c4c(CN5CCOCC5)c(O)ccc42)CCc2ccccc2C3=O)cc1,–,> 100,> 100,> 100,> 100,> 100,> 100,–,–,–,> 100,54.5,25.4,> 100,37.6,> 100,> 100,52.1,> 100,24.4
C=CC(=O)N[C@H]1CCOC[C@H]1Nc1ncc2cc(-c3c(Cl)c(OC)cc(OC)c3Cl)ccc2n1,–,94.3,> 100,87.2,> 100,61.5,> 100,–,–,–,4.31,10.7,20.3,26.5,23.7,5.65,51,17.7,> 100,9.04
C=CCC1(O)c2cccc(NCCO)c2C(=O)c2c(NCCO)cccc21,–,> 100,> 100,> 100,> 100,> 100,> 100,–,–,–,> 100,> 100,> 100,> 100,> 100,> 100,> 100,> 100,> 100,> 100
O=C(CC(=O)N1N=C(N2c3ccccc3Sc3ccccc32)CC1c1ccccc1)Nc1ccc(Cl)cc1 (stereo unspecified),> 100,> 100,> 100,–,> 100,–,> 100,> 100,–,–,–,–,–,–,–,–,–,–,–,–
COC(=O)[C@]12CC[C@@H](C)[C@H](C)[C@@H]1C1=CC[C@@H]3[C@@]4(C)C=C(O)C(=O)[C@@]5(C)COC(=C54)C[C@@]3(C)[C@]1(C)CC2,–,26.5,29.6,41.3,24.4,29.7,37.9,–,–,–,8.37,15.1,11.5,15.8,8.42,3.45,12.3,11.9,29.7,5.57
